Source: the NIST ThermoML archive (doi:10.1021/acs.jced.8b00554)
± gives the expanded uncertainty stated by the source.

Experiment: xn = mol fraction of the nth substance listed
Conditions: 333.15 K, Liquid, Vibrating tube method

CCCCCCCC [octane] + CCCO
mass density (5010 kPa, x2 = 0.2111): 682.8 ± 4.4 kg/m3 | mass density (5020 kPa, x2 = 0.1631): 680.6 ± 4.4 kg/m3 | mass density (5020 kPa, x2 = 0.3158): 688.8 ± 4.4 kg/m3 | mass density (5020 kPa, x2 = 0.4411): 698.53 ± 4.5 kg/m3 | mass density (5020 kPa, x2 = 0.7301): 726.33 ± 4.7 kg/m3 | mass density (6000 kPa, x2 = 0.2111): 683.81 ± 4.4 kg/m3 | mass density (6010 kPa, x2 = 0.3158): 689.87 ± 4.4 kg/m3 | mass density (6010 kPa, x2 = 0.4411): 699.54 ± 4.5 kg/m3 | mass density (6010 kPa, x2 = 0.7301): 727.35 ± 4.7 kg/m3 | mass density (6010 kPa, x2 = 0.8823): 750.8 ± 4.8 kg/m3 | mass density (6020 kPa, x2 = 0.1631): 681.62 ± 4.4 kg/m3 | mass density (7000 kPa, x2 = 0.1631): 682.67 ± 4.4 kg/m3 | mass density (7000 kPa, x2 = 0.2111): 684.85 ± 4.4 kg/m3 | mass density (7000 kPa, x2 = 0.3158): 690.9 ± 4.4 kg/m3 | mass density (7010 kPa, x2 = 0.4411): 700.57 ± 4.5 kg/m3 | mass density (7010 kPa, x2 = 0.8823): 751.79 ± 4.8 kg/m3 | mass density (7020 kPa, x2 = 0.7301): 728.39 ± 4.7 kg/m3 | mass density (8000 kPa, x2 = 0.8823): 752.76 ± 4.8 kg/m3 | mass density (8010 kPa, x2 = 0.1631): 683.7 ± 4.4 kg/m3 | mass density (8010 kPa, x2 = 0.7301): 729.39 ± 4.7 kg/m3 | mass density (8020 kPa, x2 = 0.2111): 685.89 ± 4.4 kg/m3 | mass density (8020 kPa, x2 = 0.3158): 691.91 ± 4.4 kg/m3 | mass density (8020 kPa, x2 = 0.4411): 701.57 ± 4.5 kg/m3 | mass density (9000 kPa, x2 = 0.4411): 702.6 ± 4.5 kg/m3 | mass density (9010 kPa, x2 = 0.1631): 684.68 ± 4.4 kg/m3 | mass density (9010 kPa, x2 = 0.2111): 686.89 ± 4.4 kg/m3 | mass density (9010 kPa, x2 = 0.3158): 692.93 ± 4.4 kg/m3 | mass density (9010 kPa, x2 = 0.7301): 730.37 ± 4.7 kg/m3 | mass density (9010 kPa, x2 = 0.8823): 753.69 ± 4.8 kg/m3 | mass density (10000 kPa, x2 = 0.2111): 687.87 ± 4.4 kg/m3 | mass density (10000 kPa, x2 = 0.8823): 754.64 ± 4.8 kg/m3 | mass density (10010 kPa, x2 = 0.3158): 693.93 ± 4.5 kg/m3 | mass density (10010 kPa, x2 = 0.7301): 731.35 ± 4.7 kg/m3 | mass density (10020 kPa, x2 = 0.1631): 685.68 ± 4.4 kg/m3 | mass density (10020 kPa, x2 = 0.4411): 703.57 ± 4.5 kg/m3 | mass density (11000 kPa, x2 = 0.3158): 694.92 ± 4.5 kg/m3 | mass density (11010 kPa, x2 = 0.1631): 686.66 ± 4.4 kg/m3 | mass density (11010 kPa, x2 = 0.4411): 704.56 ± 4.5 kg/m3 | mass density (11010 kPa, x2 = 0.7301): 732.33 ± 4.7 kg/m3 | mass density (11010 kPa, x2 = 0.8823): 755.6 ± 4.8 kg/m3 | mass density (11020 kPa, x2 = 0.2111): 688.87 ± 4.4 kg/m3 | mass density (12000 kPa, x2 = 0.2111): 689.87 ± 4.4 kg/m3 | mass density (12000 kPa, x2 = 0.4411): 705.54 ± 4.5 kg/m3 | mass density (12010 kPa, x2 = 0.8823): 756.54 ± 4.8 kg/m3 | mass density (12020 kPa, x2 = 0.1631): 687.66 ± 4.4 kg/m3 | mass density (12020 kPa, x2 = 0.3158): 695.9 ± 4.5 kg/m3 | mass density (12020 kPa, x2 = 0.7301): 733.28 ± 4.7 kg/m3 | mass density (13000 kPa, x2 = 0.8823): 757.44 ± 4.8 kg/m3 | mass density (13010 kPa, x2 = 0.3158): 696.87 ± 4.5 kg/m3 | mass density (13020 kPa, x2 = 0.1631): 688.62 ± 4.4 kg/m3 | mass density (13020 kPa, x2 = 0.2111): 690.84 ± 4.4 kg/m3 | mass density (13020 kPa, x2 = 0.4411): 706.46 ± 4.5 kg/m3 | mass density (13020 kPa, x2 = 0.7301): 734.24 ± 4.7 kg/m3 | mass density (14010 kPa, x2 = 0.2111): 691.78 ± 4.4 kg/m3 | mass density (14010 kPa, x2 = 0.3158): 697.84 ± 4.5 kg/m3 | mass density (14010 kPa, x2 = 0.4411): 707.42 ± 4.5 kg/m3 | mass density (14010 kPa, x2 = 0.8823): 758.35 ± 4.9 kg/m3 | mass density (14020 kPa, x2 = 0.1631): 689.54 ± 4.4 kg/m3 | mass density (14020 kPa, x2 = 0.7301): 735.17 ± 4.7 kg/m3 | mass density (15000 kPa, x2 = 0.1631): 690.49 ± 4.4 kg/m3 | mass density (15000 kPa, x2 = 0.2111): 692.73 ± 4.4 kg/m3 | mass density (15010 kPa, x2 = 0.4411): 708.36 ± 4.5 kg/m3 | mass density (15020 kPa, x2 = 0.3158): 698.76 ± 4.5 kg/m3 | mass density (15020 kPa, x2 = 0.7301): 736.09 ± 4.7 kg/m3 | mass density (15020 kPa, x2 = 0.8823): 759.26 ± 4.9 kg/m3 | mass density (16000 kPa, x2 = 0.1631): 691.42 ± 4.4 kg/m3 | mass density (16000 kPa, x2 = 0.4411): 709.26 ± 4.5 kg/m3 | mass density (16010 kPa, x2 = 0.2111): 693.66 ± 4.5 kg/m3 | mass density (16010 kPa, x2 = 0.3158): 699.72 ± 4.5 kg/m3 | mass density (16010 kPa, x2 = 0.8823): 760.14 ± 4.9 kg/m3 | mass density (16020 kPa, x2 = 0.7301): 737.02 ± 4.7 kg/m3 | mass density (17010 kPa, x2 = 0.2111): 694.6 ± 4.5 kg/m3 | mass density (17010 kPa, x2 = 0.3158): 700.63 ± 4.5 kg/m3 | mass density (17010 kPa, x2 = 0.4411): 710.16 ± 4.6 kg/m3 | mass density (17010 kPa, x2 = 0.7301): 737.93 ± 4.7 kg/m3 | mass density (17020 kPa, x2 = 0.1631): 692.33 ± 4.4 kg/m3 | mass density (17020 kPa, x2 = 0.8823): 761.01 ± 4.9 kg/m3 | mass density (18000 kPa, x2 = 0.1631): 693.25 ± 4.5 kg/m3 | mass density (18010 kPa, x2 = 0.3158): 701.51 ± 4.5 kg/m3 | mass density (18010 kPa, x2 = 0.4411): 711.06 ± 4.6 kg/m3 | mass density (18010 kPa, x2 = 0.7301): 738.78 ± 4.7 kg/m3 | mass density (18010 kPa, x2 = 0.8823): 761.87 ± 4.9 kg/m3 | mass density (18020 kPa, x2 = 0.2111): 695.49 ± 4.5 kg/m3 | mass density (19000 kPa, x2 = 0.1631): 694.12 ± 4.5 kg/m3 | mass density (19000 kPa, x2 = 0.3158): 702.41 ± 4.5 kg/m3 | mass density (19000 kPa, x2 = 0.7301): 739.68 ± 4.7 kg/m3 | mass density (19000 kPa, x2 = 0.8823): 762.72 ± 4.9 kg/m3 | mass density (19010 kPa, x2 = 0.2111): 696.36 ± 4.5 kg/m3 | mass density (19020 kPa, x2 = 0.4411): 711.94 ± 4.6 kg/m3 | mass density (20000 kPa, x2 = 0.1631): 694.96 ± 4.5 kg/m3 | mass density (20000 kPa, x2 = 0.2111): 697.38 ± 4.5 kg/m3 | mass density (20010 kPa, x2 = 0.3158): 703.29 ± 4.5 kg/m3 | mass density (20010 kPa, x2 = 0.7301): 740.54 ± 4.8 kg/m3 | mass density (20010 kPa, x2 = 0.8823): 763.55 ± 4.9 kg/m3 | mass density (20020 kPa, x2 = 0.4411): 711.91 ± 4.6 kg/m3
